Consider three compounds from patent publication US20020106416A1, “Composition for inhibition of H. influenzae and treatment of otitis media and sore throat” (priority 1996, published 2002).

This experiment is described as follows: Clinical evaluation of HHT888-10 in patients with otitis media or sore throat. Particulars: sixth patient; initial treatment with Erythromycin, Bactrium, and Naproxen together. The experiment is classed as in vivo, human. On the procedure: The extract powder prepared in Example IB of Pogostemon cablin (HHT888-10) was administered orally to a patient with recurrent otitis media at a dosage of 2 g twice a day ( total 4 gms per day) for 3 days.
A sixth patient was treated for sore throat, headache and fever. […] On the fifth day, the patient was treated with HHT888-10 at 2 g b.i.d. p.o. for 2 days.
For the compound `CC[C@H]1OC(=O)[C@H](C)[C@@H](O[C@H]2C[C@@](C)(OC)[C@@H](O)[C@H](C)O2)[C@H](C)[C@@H](O[C@@H]2O[C@H](C)C[C@H](N(C)C)[C@H]2O)[C@](C)(O)C[C@@H](C)C(=O)[C@H](C)[C@@H](O)[C@]1(C)O` [Erythromycin], the fever and headache result is listed as “subsided”; the sore throat entry is “became worse”.
As to `COc1ccc2cc([C@H](C)C(=O)O)ccc2c1` [Naproxen], the fever and headache entry is recorded as “subsided”; the sore throat entry is “became worse”.
As to Bactrium, the fever and headache entry was “subsided”; the sore throat entry is “became worse”.
